Results taken from US7186744B2, “Prostamides for the treatment of glaucoma and related diseases” (Allergan, Inc., priority 2003, dated 2007).
Marks after values point to notes of the source that are not given here.

Tested on: dogs (Beagle)
Assay: Intraocular pressure studies by pneumatonometry in dogs
Assay type: in vivo
Conditions: conscious Beagle dogs, topical 25 μL drop, 0.03% drug
Experimental: Intraocular pressure studies were carried out for compounds 1–3 by pneumatonometry in dogs (Beagle) of both sexes (10–15 kg). The animals remained conscious throughout the study and were gently restrained by hand. Drugs were administered topically to one eye as a 25 μL volume drop comprising 0.03% drug, 0.1% polysorbate 80:10 mM TRIS, the other eye received 0.1% polysorbate 80:10 mM TRIS. Proparacaine (0.1%) was used for corneal anesthesia during tonometry. Intraocular pressure was determined just before drug administration and at 2, 4 and 6 hours thereafter on each day of the 5 day study. […] Drug was administered immediately after the first IOP reading.

[1] = 0 hrs (just before drug administration)

CCCCC[C@H](O)/C=C/[C@@H]1[C@@H](C/C=C\CCCC(=O)NCCc2c[nH]c3ccc(O)cc23)[C@@H](O)C[C@H]1O [Compound 3, (Z)-7-[(1R,2R,3R,5S)-3,5-Dihydroxy-2-((E)—(S)-3-hydroxy-oct-1-enyl)-cyclopentyl]-hept-5-enoic acid [2-(5-hydroxy-1H-indol-3-yl)-ethyl]-amide]
Change in Intraocular Pressure (IOP) [1]: 0
Change in Intraocular Pressure (IOP) (2 hrs): −3.2*
Change in Intraocular Pressure (IOP) (4 hrs): −5.8*
Change in Intraocular Pressure (IOP) (6 hrs): −7.6**
Change in Intraocular Pressure (IOP) (24 hrs): −2.2

CCCCC[C@H](O)/C=C/[C@@H]1[C@@H](C/C=C\CCCC(=O)NCCc2ccc(O)c(O)c2)[C@@H](O)C[C@H]1O [Compound 2, (Z)-7-[(1R,2R,3R,5S)-3,5-Dihydroxy-2-((E)—(S)-3-hydroxy-oct-1-enyl)-cyclopentyl]-hept-5-enoic acid [2-(3,4-dihydroxy-phenyl)-ethyl]-amide]
Change in Intraocular Pressure (IOP) [1]: 0
Change in Intraocular Pressure (IOP) (2 hrs): −3.8*
Change in Intraocular Pressure (IOP) (4 hrs): −3.2**
Change in Intraocular Pressure (IOP) (6 hrs): −3.2**
Change in Intraocular Pressure (IOP) (24 hrs): −1.1*
